Measurements: patent publication US20260183396A1, “CXCR3 OVEREXPRESSION IN CAR-NK CELLS PRIMES MIGRATION/HOMING INTO THE TUMOR MICROENVIRONMENT” (DANA-FARBER CANCER INSTITUTE, INC., priority 2022, published 2026)

Columns and labels:
MPM cell lines = test: NK cell killing assay; format: cell-based, human; details: NK co-culture, only with MPM cells expressing STING
Protocol: NK cell killing assay. Target cells (MPM cell lines) were detached via trypsinization, labelled with CellTrace Violet (CTV, LifeTechnologies) and then seeded in a 96-well plate at a cell density of 25,000 cells per well. […] After 6 hours of co-culture, the cells were harvested and incubated with an antibody for the apoptosis marker Annexin V (PE) and the live/dead stain 7-AAD (Biolegend). Cells were analyzed on a BD LSRFortessa with FACSDiva software (BD Biosciences). Data were analyzed using FlowJo software version 10.5.3. The apoptotic cells were evaluated by gating on the CTV+ population and represented as percentage live or dead (late apoptotic) cells. Apoptotic cell analysis was conducted using NK cells extracted from as many as 4 different healthy donors per target MPM cell line to incorporate baseline donor variability.

H226 MPM cells = test: NK cell migration assay towards H226 spheroids; format: cell-based, human
Protocol: NK cell infiltration assay. Immune cell infiltration was assessed as previously described (Kitajima et al., Cancer Discov. 9:34-45 (2019); Mahadevan et al., Cancer Discov. 11:1952-1969 (2021)). Briefly, mesothelioma cancer cell spheroids (H2591, H2461, H226) were generated by seeding 5×10^5 cells in suspension in a ULA dish for 24 hours. […] Samples were then pelleted and resuspended in type I rat tail collagen (Corning) at a concentration of 2.5 mg/mL following the addition of 10×PBS with phenol red and pH adjustment using NaOH. pH 7.0-7.5 was confirmed using PANPEHA Whatman paper (Sigma-Aldrich). Cells and collagen were kept on ice to prevent polymerization. The spheroid-collagen suspension was then injected into the central gel region of the 3D DAX-1 microfluidic cell culture chip (AIM Biotech). Microfluidic devices were utilized as previously described (Aref et al., Lab Chip 18:3129-3143 (2018)), with a central region containing the cell-collagen mixture in a 3D microenvironment (3×10^4 cells H2591 and H2461, 2× 10^4 cells H226 in 10 μL), flanked by 2 media channels. After injection, collagen hydrogels containing cells were incubated for 40 minutes at 37° C. in humidity chambers, then hydrated with culture media, with labeled primary NK cells (ET ratio 2:1) added to one of the side channels. Primary NK cells were labeled with Cell Tracker Red (Thermo Fisher Scientific) following manufacturer's instructions. After 96 hours of incubation, viability staining of cancer cell spheroids and infiltrated immune cells was performed (20-minute incubation with 1 μg/mL solution of Propidium Iodide; Thermo Fisher Scientific). For the experiment with the CXCR3 neutralizing antibody (R&D MAB160), NK cells were pre-treated for 30 minutes prior to loading.
For quantification, images were captured on a Nikon Eclipse 80i fluorescence microscope equipped with Z-stack (Prior) and CoolSNAP CCD camera (Roper Scientific). Image capture and analysis was performed using NIS-Elements AR software package. Whole device images were achieved by stitching in multiple captures. Quantification of immune cell infiltration into the 3D tumor microenvironment was performed by measuring the total cell area of cell tracker dye in the entire gel region. For the experiment with the CXCR3 neutralizing antibody (R&D MAB160; FIG. 6B), staining was quantified in a square region in the center of the channel to focus on effects of CXCR3 ligands released by tumor cells. Percent dead cell quantification was performed as in PDOTS as described above.
Immune cell migration assays were performed as previously described (Kitajima et al., Cancer Discov. 9:34-45 (2019)). […]

SMILES: Nc1ncnc2c1ncn2[C@@H]1O[C@@H]2COP(=O)([S-])O[C@@H]3[C@H](O)[C@@H](COP([O-])(=S)O[C@H]2[C@H]1O)O[C@H]3n1cnc2c(N)ncnc21.[Na+].[Na+] (some centres unmarked) [ADU-S100]
- apoptosis of tumor cells (MPM cell lines): enhanced
- CAR-NK CXCR+ cell migration (H226 MPM cells): increased
- CAR-NK control cell migration (H226 MPM cells): did not affect
- migration of cNK cells (H226 MPM cells): increased migration
- migration of cNK overexpressing CXCR3 (H226 MPM cells): decreased migration
